The values that follow come from article PMC12583827, “Harnessing microbial-derived metabolites in the urinary tract to prevent infection induced catheter encrustation” (Nature Communications, 2025).

Details of series [1]: method as in PMID 9792207. As to conditions: intraperitoneal injections; cited from earlier work.
Details of series [2]: method as in PMID 9792207. Particulars: higher doses, four h post intraperitoneal administration; cited from earlier work.
In series [3] the test system is P. mirabilis urease operon (ureABC, ureEDF). Put plainly: Real-time quantitative PCR of urease operon. In kind it is cell-based, Proteus mirabilis. The procedure: P. mirabilis was cultured for ~18 h in LB broth and then sub cultured until it reached mid-log growth phase (OD600 0.2-0.5). Cultures were spun down to pellet at 10,000 rcf for 10 minutes and resuspended in saline to a final OD600 of 1.0. Cultures were then diluted 1:10 into dampening metabolites buffered 1:10 in potassium phosphate buffer pH7 and supplemented with 500 mM urea. P. mirabilis in potassium phosphate buffer without urea served as a negative control. Cultures were incubated in potassium phosphate buffer with and without dampening metabolites at 37 °C with shaking for 15 minutes. RNA isolation, cDNA synthesis and RT qPCR were performed as described previously. […] A RNA integrity analysis using agarose gel electrophoresis on extracted RNA was performed for all samples to confirm no change in transcript stability (Supplementary Fig 16A). The data were analyzed according to the Relative Quantification (RQ) method by Pfaffl et al. 2001[54] (See Supplementary Information).
168 Real-time quantitative PCR analysis. The data were analyzed according to the Relative
169 Quantification (RQ) method by Pfaffl et al 2001 (56) in which P. mirabilis potassium phosphate
170 buffer without urea was considered as the ‘Control’ and P. mirabilis in potassium phosphate
171 buffer supplemented with 500mM urea with and without candidate dampening compounds were
172 the ‘Sample.’ The full equation is below.
(E )ΔCPtarget (control−sample)
174 Relative Quantification Ratio = target Equation 2
(Ereference)ΔCPreference (control−sample)
176 In this equation, E refers to the primer efficiency of the target gene (Etarget, urease operon
177 subunits) or the reference gene (Ereference, rpoA), and CP refers to the Cycle Point, or the cycle
178 number at which the signal exceeds the threshold. […]
183 for whole genome sequencing on the Illumina NextSeq2000 platform. Read trimming, and run
184 analytics were performed using Trimmomatic v0.39.0 (62). The processed reads were assembled
185 using spades v3.15.5 (63) wrapped in Unicycler v0.5.0 (64, 65). Read mapping was done using […]

In the next series the test system is M. morganii urease. Put plainly: Urease activity assay, whole cell M. morganii TA43. In kind it is cell-based, Morganella morganii.
Another series concerns UTI MRSA urease. The series is described as follows: UTI MRSA urease activity assay. As to conditions: whole cell, urease broth. In kind it is cell-based, Staphylococcus aureus. The procedure: 190 Omega and visualization was carried out using ESPript 3.0 (69), enabling comparison across
191 different clinical isolates. Urease genes, including the full operon from ureA to ureR, were
192 identified and extracted from the prokka annotated genomes. The extracted protein sequences
193 were subjected to sequence alignment using Clustal Omega and visualization was carried out
194 using ESPript 3.0 [8], enabling comparison across different clinical isolates.
195 UTI MRSA urease activity assay. The UTI MRSA urease assay was adapted from a recently-
196 published semi quantitative assay to measure urease activity in bacterial species with low overall
197 activity under standard conditions (50). Dampening metabolites were directly dissolved in urease
198 broth (1 g tryptone (RPI; CAS No. 91079-40-2), 1 g D(+)-glucose (RPI; CAS No. 50-99-7), 2 g
199 potassium phosphate monobasic anhydrous (VWR; Lot: 20C1356567), 5 g sodium chloride
201 of MilliQ water, pH 5.5, sterilized via autoclaving). UTI MRSA strains from overnight cultures
202 were harvested by centrifugation for 5 minutes at 10,000 g, washed with 1 volume of 1X
203 Phosphate Buffered Saline (PBS), and resuspended in urease broth. Bacterial cultures were […]
205 measured at 415 nm, 560 nm, and 600 nm every 20 mins for 24 hours, shaking at 37°C using a
206 BioTek Synergy|H1 microtiter plate reader. Urease activity was calculated by dividing the OD […]

A further series relates to M. morganii TA43. Put plainly: Growth and viability of M. morganii in dampening metabolites. In kind it is cell-based, Morganella morganii. The procedure: (§1) 478 Supplementary Figure 20. Growth of M. morganii, P. stuartii and UTI MRSA incubated in
(§2) 479 dampening metabolites. M. morganii TA43 (A,D,G), P. stuartii BE2467(B,E,H), UTI MRSA
(§3) 480 (C,F,I) were incubated in urease dampening metabolites to assess impact on growth. Bacteria
(§4) 481 were cultured for ~18 hours in LB (Mm and Ps) or BHI (MRSA) broth, then diluted 1:100 into
(§5) 482 fresh broth with (A-C) the highest concentrations of dampening metabolites assessed for urease
(§6) 483 inhibition or (D-F) serial dilutions of D-imidazole lactate. Bacterial suspensions were incubated
(§7) 484 at 37 °C with double-orbital shaking, and OD600 was measured every 15 minutes for 18 hours.
(§8) 485 Error bars represent mean ± standard deviation (SD) from at least 3 technical replicates, and
(§9) 486 graphs are representative of 3 independent biologic experiments. (G-I) Viability of incubated in
(§10) 487 Mm, Ps or MRSA incubated in serial dilutions of D-imidazole lactate. Overnight cultures were
(§11) (1 picture or pasted object on this page, not shown here)
(§12) 488 subcultured to mid log phase, washed in potassium phosphate buffer, and diluted 1:10 in
(§13) 489 potassium phosphate buffer with and without D-imidazole lactate. Samples (n=3) were incubated
(§14) 490 at 37°C with aeration for one hour then plated and enumerated for colony forming units (CFU).

The next series concerns UTI MRSA. Put plainly: Growth and viability of UTI MRSA in dampening metabolites. In kind it is cell-based, Staphylococcus aureus. On the procedure:
as §1, §2, §3, §4, §5, §6, §7, §8, §9, §10, §11, §12, §13, §14

For a further series, the system named is P. mirabilis urease. As to conditions: 104V0, 106V15, HU1069 compared with HI4320.
In the next series the test system is isolated rabbit bladders. As to conditions: cited from earlier work.
The mark [4] stands for this setting: incubation in potassium phosphate, CFU.

Structures can show the parent of a compound that is named as a salt.

Procedure for M. morganii urease: Urease activity was measured as described previously in triplicate with at least three biological replicates[21]. Briefly, bacteria were cultured for ~18 h in LB broth, concentrated to an OD600 of 4, washed once in saline, and diluted (1:10 for P. mirabilis and 1:50 for P. stuartii and M. morganii) into candidate dampening metabolites in potassium phosphate buffer or human urine pH7 and supplemented with 500 mM urea and 0.01% phenol red. Bacterial suspensions were distributed into a 96-well plate, incubated at 37 °C with double-orbital shaking in a Synergy H1 plate reader (BioTek), and absorbance (OD562) was measured every 60 seconds for 180 minutes. Isogenic urease mutants (Supplementary Data 1) served as negative controls for P. mirabilis and P. stuartii and a vehicle control served as a negative control for M. morganii.

`Cl.O=C(O)Cc1cnc[nH]1` [4-imidazole acetate, 2-(1H-Imidazol-5-yl)acetic acid hydrochloride]: the effects in mice entry in series [1] was “sleep-like state and a decrease in body temperature”. For the same compound, in series [2], the effects in rats result is recorded as “seizures”.
Take `O.O=C(O)[C@H](O)Cc1cnc[nH]1` [D-imidazole lactate, D-imidazolelactic acid hydrate]: the “relative expression of urease mRNA transcripts” value in [3] (15-minute incubation, 500 mM urea) is listed as “decreased”. The “pool of rpoA mRNA transcripts” value in series [3] (15 minutes incubation) is recorded as “did not affect”. Also, the “urease activity in M. morganii” value in the series with M. morganii urease is listed as “most potent urease inhibition”. In the series with UTI MRSA urease, the “urease activity in MRSA” value is reported as “least potent”. In the series on M. morganii TA43 (LB broth), the “growth of M. morganii” value is recorded as “perturbed growth”. Moreover, the “antimicrobial activity against M. morganii TA43” value in the series on M. morganii TA43 (setting [4]) is listed as “robust antimicrobial activity”. The “growth of UTI MRSA” value in the series on UTI MRSA (BHI broth) is listed as “perturbed growth”. Also, the “antimicrobial activity against UTI MRSA” value in the series with UTI MRSA (setting [4]) is recorded as “less-pronounced antimicrobial activity”. The “reduction in CFUs of UTI MRSA” value in the series on UTI MRSA (one h incubation in potassium phosphate buffer) is “one log reduction”.
Consider `NCCc1c[nH]cn1` [Histamine, histamine dihydrochloride], for which the “urease-dampening activity against P. mirabilis clinical isolates” value in the series with P. mirabilis urease is recorded as “slightly less potent”. Further, the “response of isolated rabbit bladders” value with isolated rabbit bladders is reported as “induce a contractile response”.
